# In article PMC5962729 (Frontiers in Pharmacology, 2018):
# Experiments:
# [1] = tested on: ANIT-induced cholestatic liver injury; experiment: Liver histopathological examination (H&E) in ANIT-induced cholestatic rats; type: in vivo, rat; settings: UDCA + ANIT 50 mg/kg
# Method: (§1) Male Sprague Dawley rats (230 ± 20 g, 6–8 weeks of age) were purchased from B&K Laboratory Animal, Corp. Ltd. (Shanghai, China) and fed in the Laboratory Animal Center of Shanghai University of Traditional Chinese Medicine. All rats were allowed to acclimatize for 3 days before experimentation. The rats were randomly divided into six groups (n = 5 for each group). […] Moreover, groups 1 and 2 were intragastrically treated with physiological saline (0.9%) at a dose of 1 mL/100 g. […] At the end of the experiment, all rats were euthanized by CO2 inhalation. The serum samples were stored at -70°C until analysis, and liver samples were isolated and stored at -70°C for further analysis, whereas the central part of the right large lobe of the liver was used for histological examination.
# UGT1A1 = experiment: Expression level of UGT1A1 in rat liver by UHPLC-MS/MS; type: in vivo
# Method: as §1
# (§2) Biotransformation of xenobiotics and endogenous compounds is a crucial step in the absorption and elimination of potentially harmful substances from the human body, a process that could be affected by the levels of pharmacokinetic enzymes and transporter proteins. […]
# (§3) Total membrane protein was isolated (in triplicate) from liver tissue according to the Native Membrane Protein Extraction Kit protocol. Subsequently, protein concentrations were determined by applying the BCA Protein Assay Kit. […]
# MATE1 = experiment: Expression level of MATE1 in rat liver by UHPLC-MS/MS; type: in vivo
# Description: Male Sprague Dawley rats (230 ± 20 g, 6–8 weeks of age) were purchased from B&K Laboratory Animal, Corp. Ltd. (Shanghai, China) and fed in the Laboratory Animal Center of Shanghai University of Traditional Chinese Medicine. All rats were allowed to acclimatize for 3 days before experimentation. The rats were randomly divided into six groups (n = 5 for each group). […]
# Biotransformation of xenobiotics and endogenous compounds is a crucial step in the absorption and elimination of potentially harmful substances from the human body, a process that could be affected by the levels of pharmacokinetic enzymes and transporter proteins. […] Previous methods of protein quantification are immunological, such as immunoblotting ([Zhang et al., 2016]), […] and two-dimensional electrophoresis ([Bruschi et al., 2015]). […] A milestone in quantitative protein analysis was the introduction of mass spectrometry-based analysis using shotgun proteomic assays with relative protein quantification, which has advantages in terms of absolute accuracy, stability, operability, and efficiency over traditional quantitative methods ([Wang et al., 2015]). […]
# MDR1 = experiment: Expression level of MDR1 in rat liver by UHPLC-MS/MS; type: in vivo
# Method: as §1, §2, §3
# OATP1A1 = experiment: Expression level of OATP1A1 in rat liver by UHPLC-MS/MS; type: in vivo; settings: UDCA group, ANIT-treated rats; mean ± S.D.
# Method: (§4) Male Sprague Dawley rats (230 ± 20 g, 6–8 weeks of age) were purchased from B&K Laboratory Animal, Corp. Ltd. (Shanghai, China) and fed in the Laboratory Animal Center of Shanghai University of Traditional Chinese Medicine. All rats were allowed to acclimatize for 3 days before experimentation. The rats were randomly divided into six groups (n = 5 for each group). […] The rats in groups 4, 5, and 6 were intragastrically administered YCHD every 24 h for 10 consecutive days. The rats in group 3 were orally administered UDCA at a dose of 100 mg/kg every 24 h for 10 consecutive days, which is well-documented to treat induced liver injury and cholestasis ([Chen et al., 2016]; [Cao et al., 2017]). Moreover, groups 1 and 2 were intragastrically treated with physiological saline (0.9%) at a dose of 1 mL/100 g. […] At the end of the experiment, all rats were euthanized by CO2 inhalation. The serum samples were stored at -70°C until analysis, and liver samples were isolated and stored at -70°C for further analysis, whereas the central part of the right large lobe of the liver was used for histological examination. […]
# OATP1A2 = experiment: Expression level of OATP1A2 in rat liver by UHPLC-MS/MS; type: in vivo
# Method: as §4
# OATP1A4 = experiment: Expression level of OATP1A4 in rat liver by UHPLC-MS/MS; type: in vivo
# Method: as §4
# [2] = UDCA group, ANIT-treated rats, mean ± S.D.
# [3] = UDCA-treated cholestatic rats, liver, not statistically significant
# [4] = UDCA-treated cholestatic rats, liver, as compared with the control group, p < 0.05
structure (smiles),measurement,setting,value
"C[C@H](CCC(=O)O)[C@H]1CC[C@H]2[C@@H]3[C@@H](O)C[C@@H]4C[C@H](O)CC[C@]4(C)[C@H]3CC[C@]12C [UDCA, Ursodeoxycholic acid]",liver histopathology (H&E),[1],hepatocyte hydropic degeneration with less neutrophil infiltration and a milder degree of bile duct epithelial damage
same,Ugt1a1 expression level in rat liver,UGT1A1; [2],6.06±1.34 fmol/μg protein
same,"UGT1A1 level, fold higher","UGT1A1; UDCA-treated cholestatic rats, liver, as compared with the control group, p < 0.01",2.1 fold
same,Mate1 expression level in rat liver,MATE1; [2],3.43±1.38 fmol/μg protein
same,"MATE1 expression upregulated, fold",MATE1; [3],1.7 fold
same,Mdr1 expression level in rat liver,MDR1; [2],0.67±0.32 fmol/μg protein
same,"MDR1 level, fold higher",MDR1; [4],2.4 fold
same,Oatp1a1 expression level in rat liver,OATP1A1,3.42±1.23 fmol/μg protein
same,Oatp1a2 expression level in rat liver,OATP1A2; [2],1.27±0.18 fmol/μg protein
same,"OATP1A2 level, fold higher",OATP1A2; [4],1.5 fold
same,Oatp1a4 expression level in rat liver,OATP1A4; [2],0.49±0.11 fmol/μg protein
same,"OATP1A4 expression upregulated, fold",OATP1A4; [3],1.3 fold
